Results as given in patent US9611286B2, “Ruthenium carbon monoxide releasing molecules and uses thereof” (Alfama, Inc., priority 2011, dated 2017).

Experiments:
P. berghei ANKA GFP [1] = assay type: in vivo, C57BL/6 mice; conditions: for hyperparasitemia in protected mice (infected red blood cells): 3 weeks after infection; for effect on parasitemia: treated twice daily days 2-3, observed from about day 5 to day 8 of infection
Experimental: It has previously been shown that administration of CO by inhalation protects P. berghei ANKA infected C57BL/6 mice from developing ECM (see, e.g., Pamplona et al. Nat Med (2007) 13:703-710). The inventors questioned whether CO-RMs could mimic the protection conferred by CO inhalation in P. berghei ANKA infection. To this end, a known ruthenium CORM, Ru(CO)3Cl2, also referred to herein as CORM-2, was tested on different schedules of treatment and doses in P. berghei ANKA infected C57BL/6 mice (data not shown).
Red blood cells infected with green fluorescent protein (GFP)-transgenic P. berghei ANKA and P. berghei ANKA was used to infect mice (see, e.g., Franke-Fayard et al. Mol Biochem Parasitol (2004) 137:23-33). Cryopreserved parasites were passed once through C57BL/6 or DBA-2 mice before being used to infect experimental animals. C57BL/6 or DBA-2, 6- to 8-wk-old mice (sex matched in each experiment) were infected by intra-peritoneal (i.p.) injection of 10^6 infected RBCs. The infected mice were monitored daily for clinical symptoms of experimental cerebral malaria (ECM) including hemi- or paraplegia, head deviation, tendency to roll over on stimulation, ataxia and convulsions, or ALI, including dyspnea. Mice showing severe signs of ECM at day 5, 6 or 7 post-infection (p.i.) and ALI between days 7 and 9 were sacrificed. Parasitemia was assessed by flow cytometry for mice infected with GFP-expressing P. berghei ANKA, using tail blood, as previously described (see, e.g., Pamplona et al., Nat Med (2007) 13:703-710). Mean parasitemia is expressed as percentage of infected red blood cells. For mice infected with non-GFP P. berghei parasitemia was assessed daily by microscopic counting of Giemsa-stained thin blood smears. Mean parasitemia is expressed as percentage of infected red blood cells. Survival is expressed as percentage.
(§1) In order to evaluate the clinical presentation of experimental cerebral malaria, a classification was used in clinical stages from 0 to 4 (see, e.g., Bienvenu et al., Acta Trop (2008) 106:104-8; Franklin et al., Proc Natl Acad Sci USA (2011) 108:3689-94). Briefly, stage 0 indicates no detectable clinical symptoms, stage 1, ruffled fur; stage 2, ruffled fur and unbalancing; stage 3, limb paralysis and respiratory distress and stage 4, convulsions, coma or death. The mice were clinically classified before and after the treatment to evaluate the clinical recovery.
(§2) CORM-2 (Sigma-Aldrich) and Compound 2 were solubilized using 10% dimethyl sulfoxide (DMSO; Sigma-Aldrich) in PBS. CORM-3 and Compound 1 were solubilized in PBS (lx). CORM-2 solution (20 mg/kg of body weight) was administered intravenously (i.v.) according to the chosen schedules. […] As vehicle control, we used a solution of 10% DMSO in PBS administered i.v. The concentrations of CORM-2 used in the present study were based on previous reports (see, e.g., Chen et al. Am. J. Pathol. (2009) 175:422-429; Sun et al., World. J. Gastroenterol. (2008) 14:547-553). Artesunate is presented as a powder of artesunic acid. Artesunate (AS) solution was prepared by dissolving 60 mg of anhydrous artesunic acid in 1 ml of sodium bicarbonate (5%) to form sodium artesunate and then diluted in 5 ml of NaCl (0.9%). An AS solution (i.p.) was administered at 40 mg/Kg/day, as described previously (see, e.g., Bienvenu, Acta Trop (2008) 106:104-108). The AS treatment was started when the infected non-treated mice presented the clinical stage 1 for experimental cerebral malaria.

Hen Egg White Lysozyme C = biological target: T1, Hen Egg White Lysozyme C (Gallus gallus, UniProt P00698); assay: Hen egg white lysozyme (HEWL) assay, reactivity with proteins by LC-MS; assay type: binding; conditions: 10 equiv in H2O, room temperature, 10 minutes and 1 hour
T1 construct: one corresponding to the mass of native lysozyme (14305=calculated mass); from tissue; host or cells: hen egg white
T1 sequence (P00698 19-147): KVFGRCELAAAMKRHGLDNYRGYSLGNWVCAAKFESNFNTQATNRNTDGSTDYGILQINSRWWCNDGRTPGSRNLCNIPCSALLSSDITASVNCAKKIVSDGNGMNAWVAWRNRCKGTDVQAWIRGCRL
Excerpt: The hen egg white lysozyme (HEWL) assay was used to assess the reactivity of Compound 1 in the presence of proteins (see, e.g., Santos-Silva, T. et al. J Am Chem Soc (2011) 133, 1192-1195). This paper describes the interactions of CORM-3 with plasma proteins. CORM-3 reacts rapidily with proteins, losing chloride ion, glycinate, and one CO ligand. […] It was observed that CORM-3 reacts faster and has a much weaker efficacy than Compound 1 in this ECM treatment.
Liquid chromatography-mass spectrometry (LC-MS) was performed on a Micromass Quattro API instrument (ESI-TOF-MS) coupled to a Waters Alliance 2795 HPLC using a MassPREP On-Line Desalting Cartridge. […]
Hen Egg White Lysozyme C (PDB code 3b61; UniProtKB/Swiss-Prot code P00698). […] Quantitative determination of lysozyme-ligand binding in the solution and gas phases by electrospray ionisation mass spectrometry follows Veros et al., Rapid Commun. […] A 50 μL aliquot was analyzed by LC-MS (calculated average isotopic mass of the egg white lysozyme=14305.1).
Santos-Silva and co-workers previously describe CORM-3's reactivity towards proteins and formation of a Ru(II) dicarbonyl-lysozyme complex (see, e.g., Santos-Silva et al., J. Am. Chem. Soc. (2011) 133:1192-1195). […] 50 μL aliquots were collected and analyzed by LC-MS over the reaction time (10 minutes and 1 hour). […]

[2] = cited from earlier work
[3] = Quantification of Ru in tissues (bio-distribution); conditions: non-infected mice, i.v.
Experimental: Tricarbonyldichloro(methylthiogalactopyranoside) Ru(II) [Ru(CO)3Cl2(Gal-S-Me)], also referred to herein as Compound 1, was prepared by reacting CORM-2 with methylthiogalactopyranoside (Gal-S-Me) as described herein (see FIG. 2a and Materials and Methods section). The bio-distribution of Compound 1 in tissues was assessed by quantifying the levels of Ru and CO in the host by the method of Vreman et al., Anal Biochem (2005) 341:280-9. Liver, kidney, spleen, lung and brain tissues of non-infected mice (NI) were analyzed one hour after administration of Compound 1 and the control molecule, Compound 2 (FIG. 2b). […] The spleen is an organ that plays a crucial role in erythrophagocytosis, process important for red blood cell turnover, and recycling of iron. Erythrocytes are hydrolyzed by splenic macrophages, where the degradation of hemoglobin occurs, haem is release, and is catabolized by heme oxygenase-1 into biliverdin, carbon monoxide and ferrous iron (Fe^2+).
The tissue samples were weighed and dried at 80° C. overnight followed by 2 or more hours at 120° C. […] The Ru content was analyzed by an inductively coupled plasma-atomic emission spectrometer (ICP-AES) (model Ultima-Horiba Jobin Yvon, Longjumeau, France) using an external Ru standard method.

P. berghei ANKA GFP [4] = assay: Adjunctive/adjuvant therapy with artesunate after onset of ECM; assay type: in vivo, C57BL/6 mice; conditions: for parasitemia: AS alone 40 mg/Kg/day i.p. d5-d6
Experimental: Thus, the inventors decided to test Compound 1 as an adjunctive and adjuvant therapy during the acute phase of ECM. […] Therefore, the inventors assessed the combination of Compound 1 and AS on parasite clearance and clinical recovery from ECM. Two AS and Compound 1 combinations were tested: (i) Adjunctive therapy: AS and Compound 1 were administered concomitantly for 2 days after the onset of CM followed by a 3-day treatment with Compound 1 alone, or (ii) Adjuvant therapy: AS was administered on the first 2 days after CM onset followed by Compound 1 administration for 3 more days.
as §1, §2

P. falciparum 3D7 = assay: In vitro replication of P. falciparum 3D7; assay type: cell-based, Plasmodium falciparum; conditions: 48 h
Experimental: (§3) The data led the inventors to wonder whether Compound 1 could have a direct anti-parasitic effect on P. berghei ANKA and P. falciparum parasites. To this end, the effect of Compound 1 and the anti-malarial chloroquine (CQ) was monitored on the in vitro replication of P. falciparum 3D7 isolate and P. berghei ANKA for 48 h and 24 h, respectively.

P. berghei ANKA [5] = assay: In vitro replication of P. berghei ANKA; assay type: cell-based, Plasmodium berghei; conditions: 24 h
Experimental: as §3

[6] = Brain histology (hematoxylin and eosin) in ECM; assay type: in vivo, C57BL/6 mice; conditions: P. berghei ANKA-infected mice
Experimental: For evaluation of histological features, mice were deeply anesthetized until cessation of breathing when infected control mice presented signs of ECM or ALI. The livers, lungs, and brains were removed and fixed in 10% buffered formalin for 24-72 h. Four-micron sections were cut from paraffin-embedded tissues and stained with hematoxylin and eosin according to standard procedures. Histological analyses were performed on a Leica microscope DM 2500 (Leica Microsystems).

P. berghei ANKA [7] = assay: Malaria-associated acute lung injury (M-AALI) model; assay type: in vivo, DBA/2 mice; conditions: i.v. twice daily
Excerpt: The M-AALI model, based on the infection of DBA-2 mice with P. berghei ANKA, is characterized by dyspnea, airway obstruction, hypoxemia, pulmonary exudate and elevated VEGF levels in plasma, followed by death between days 7 and 12 after infection.
Red blood cells infected with green fluorescent protein (GFP)-transgenic P. berghei ANKA and P. berghei ANKA was used to infect mice (see, e.g., Franke-Fayard et al. Mol Biochem Parasitol (2004) 137:23-33). Cryopreserved parasites were passed once through C57BL/6 or DBA-2 mice before being used to infect experimental animals. […] The infected mice were monitored daily for clinical symptoms of experimental cerebral malaria (ECM) including hemi- or paraplegia, head deviation, tendency to roll over on stimulation, ataxia and convulsions, or ALI, including dyspnea. […] Parasitemia was assessed by flow cytometry for mice infected with GFP-expressing P. berghei ANKA, using tail blood, as previously described (see, e.g., Pamplona et al., Nat Med (2007) 13:703-710). Mean parasitemia is expressed as percentage of infected red blood cells. For mice infected with non-GFP P. berghei parasitemia was assessed daily by microscopic counting of Giemsa-stained thin blood smears. Mean parasitemia is expressed as percentage of infected red blood cells. Survival is expressed as percentage. […]

With `NCC(=O)O.[C-]#[O+].[C-]#[O+].[C-]#[O+].[Cl][Ru]` [CORM-3, fac-Ru(CO)3C1(glycinate)] the “hyperparasitemia in protected mice (infected red blood cells)” value (P. berghei ANKA GFP [1]) was > 50 % infected red blood cells, the “mice protected from ECM” value (P. berghei ANKA GFP [1]; i.v. twice daily between days 2 and 3 after infection, equimolar to CORM-2 20 mg/kg) was 50% and the effect on parasitemia (P. berghei ANKA GFP [1]) was “statistically significant delay in parasitemia”. The “reactivity with HEWL (adduct formation)” value (Hen Egg White Lysozyme C) was “reacts faster” and the “COHb levels in blood after in vivo administration” value [2] was “do not elevate the carboxyhemoglobin (COHb) levels”.

For “Tricarbonyldichloro(methylthiogalactopyranoside) Ru(II) [Compound 1]”, the “amount of Ru retained in the liver after the last injection, of the Ru administered in all doses” value [3] was “about 13.7±0.6%”.

With `C[C@H]1[C@H](OC(=O)CCC(=O)O)O[C@@H]2O[C@@]3(C)CC[C@H]4[C@H](C)CC[C@@H]1[C@@]24OO3` [AS, Artesunate] the parasitemia (P. berghei ANKA GFP [4]; day 5 post-infection) was 6.8±0.3%, the parasitemia (P. berghei ANKA GFP [4]; day 9 post-infection) was 0.59±0.06% and the “mice that died with ECM” value (P. berghei ANKA GFP [4]; AS alone d5-d6) was 82%. The survival (P. berghei ANKA GFP [4]; AS alone d5-d6) was 18%.

In the case of `CS(C)=O.CS(C)=O.CS(C)=O.CS(C)=O.[Cl][Ru][Cl]` [Compound 2, Tetrakis(dimethylsulfoxide)dichlororuthenium(II), reference compound], the “inhibition of in vitro growth” value (P. falciparum 3D7) is reported as “absence of inhibitory effect”, the “inhibition of in vitro growth” value (P. berghei ANKA [5]) is reported as “absence of inhibitory effect” and the “neuropathologic features in brain sections” value [6] is reported as “evidence of microvascular congestion with pRBC and leukocytes and hemorrhagic foci”. For the same compound, the “mice that died displaying M-AALI symptoms” value (P. berghei ANKA [7]) was 67%.

In the case of `[C-]#[O+].[C-]#[O+].[C-]#[O+].[C-]#[O+].[C-]#[O+].[C-]#[O+].[Cl][Ru][Cl].[Cl][Ru][Cl]` [CORM-2, tricarbonyldichlororuthenium(II) dimer], the “hyperparasitemia in protected mice (infected red blood cells)” value (P. berghei ANKA GFP [1]) is reported as > 30 % infected red blood cells, the “death or symptoms of ECM” value (P. berghei ANKA GFP [1]; CORM-2 20 mg/kg i.v. twice daily between days 2 and 3 after infection) is reported as “prevented death or symptoms of ECM in all infected C57BL/6 mice” and the effect on parasitemia (P. berghei ANKA GFP [1]) is reported as “statistically significant delay in parasitemia”. For the same compound, the “COHb levels in blood after in vivo administration” value [2] was “do not elevate the carboxyhemoglobin (COHb) levels”.
